Assay results taken from PubChem BioAssay (NCI).
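Values below derive from 48-hour exposures of cells grown in 96-well plates, with endpoints linearly interpolated between the two concentrations bracketing the appropriate inhibition level. GI50: concentration for 50% inhibition of growth. TGI denotes the concentration required for complete inhibition of growth.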

Key:
Assay in all cases: growth of human tumour cells (NCI), 48 h
HCT-116 colon = test system: HCT-116 colon
HOP-62 NSCLC = test system: HOP-62 NSCLC
HT29 colon = test system: HT29 colon
KM12 colon = test system: KM12 colon
NCI-H522 lung = test system: NCI-H522 lung
RXF 393 renal = test system: RXF 393 renal
SK-MEL-28 melanoma = test system: SK-MEL-28 melanoma
SN12C renal = test system: SN12C renal
SNB-19 CNS = test system: SNB-19 CNS

Compound	GI50 (HCT-116 colon) [µM]	TGI (HCT-116 colon) [µM]	GI50 (HOP-62 NSCLC) [µM]	TGI (HOP-62 NSCLC) [µM]	GI50 (HT29 colon) [µM]	TGI (HT29 colon) [µM]	GI50 (KM12 colon) [µM]	TGI (KM12 colon) [µM]	GI50 (NCI-H522 lung) [µM]	TGI (NCI-H522 lung) [µM]	GI50 (RXF 393 renal) [µM]	TGI (RXF 393 renal) [µM]	GI50 (SK-MEL-28 melanoma) [µM]	TGI (SK-MEL-28 melanoma) [µM]	GI50 (SN12C renal) [µM]	TGI (SN12C renal) [µM]	GI50 (SNB-19 CNS) [µM]	TGI (SNB-19 CNS) [µM]
COc1ccc(NC(=O)c2sc3nc(C)c(C(O)c4ccccc4)cc3c2N)cc1 (centres undefined)	2.71	> 100	3.67	> 100	2.81	88.8	2	23.5	2.21	20.4	2.25	49.1	6.93	> 100	3.36	> 100	5.24	> 100
Nc1c(C(=O)Nc2ccccc2Cl)sc2nc3c(cc12)CCCCCC3	1.95	6.6	–	–	2.39	13.4	3.67	> 100	13.6	91.1	1.85	3.98	10.2	> 100	9.11	> 100	2.93	20.5
CCOC(=O)/C(=C/c1ccc(C#N)cc1)N(CC)CC	–	> 100	–	> 100	–	> 100	–	> 100	–	> 100	–	–	–	> 100	–	> 100	–	–
CN(C)CCNC(=O)c1cccc2[nH]c(-c3ccccc3)nc12	–	27.5	–	52.8	–	57	–	66.4	–	–	–	33.2	–	32.5	–	43.7	–	> 100
NCCNC(=S)S	–	> 100	–	> 100	–	> 100	–	> 100	–	16.6	–	> 100	–	> 100	–	> 100	–	> 100
COC1=CC(c2ccc[nH]2)=N/C1=C\c1[nH]c(C)c(C(=O)CCCCC(=O)Nc2ccccc2)c1C	1.64	3	2.98	9.7	0.693	2.52	1.03	2.3	1.32	3.46	1.03	2.23	1.63	3.2	1.67	4.38	6.09	20.8
COc1ccc(C2=NN(C(C)=O)C(c3cn(-c4ccccc4)nc3-c3ccc(Cl)cc3)C2)cc1 (centres undefined)	> 100	> 100	> 100	> 100	–	–	> 100	> 100	–	–	10.5	> 100	> 100	> 100	> 100	> 100	–	–
CC(=O)N=c1ccc2nc3c(cc(N)c4ccccc43)oc-2c1	0.323	1.24	0.573	1.83	2.09	4.62	1.44	2.87	1.44	3.47	–	–	1.75	3.26	1.39	2.9	1.71	3.46
N#CCCN(c1ccc(-c2nnc(NC(=O)CNNC(=O)CC(=O)Nc3ccccc3)s2)cc1)S(=O)(=O)c1ccccc1	–	> 100	–	> 100	–	> 100	–	> 100	–	> 100	–	–	–	> 100	–	> 100	–	> 100
CCCCCCCC[N+](C)(CCCCCCCC)CCCCCCCC	0.272	1.24	0.473	1.61	0.295	1.25	0.213	0.575	0.223	0.746	0.39	1.49	0.528	1.79	0.337	1.24	0.398	1.54
Cc1ccc(Cl)c(NC(=O)C(=O)C(C(=O)c2ccncc2)C2OC(=O)c3ccccc32)c1 (centres undefined)	–	> 100	–	> 100	–	> 100	–	–	–	> 100	–	> 100	–	> 100	–	> 100	–	–
CN(C)CCCc1c[nH]c2ccccc12	–	> 100	–	> 100	–	> 100	–	> 100	–	> 100	–	> 100	–	> 100	–	> 100	–	> 100
CCCN(CCC)c1ccc(/C=N/NC(=O)c2cccnc2)c(Cl)c1	2.88	16	10.3	28.6	4.71	17.8	7.19	25.7	6.64	23.3	11.5	25.3	11.9	31.9	14.1	34.3	16.6	> 100
CC1=C(C(=O)Nc2ccc(Cl)c(Cl)c2)C(c2ccco2)C(C(=O)Nc2ccc(Cl)c(Cl)c2)=C(C)N1	–	21.5	–	27.6	–	29.9	–	27.3	–	26.7	–	–	–	25.3	–	23.9	–	25.8
COc1ccc2c(c1)CC[C@@H]1[C@@H]2CC[C@]2(C)C(c3ccco3)=C(C=O)C[C@@H]12	2.95	12.8	20.9	46.2	5.37	> 100	3.35	12.2	21.1	> 100	0.484	27.6	15.8	> 100	23.1	95.2	9.3	> 100
Nc1ncnc2c1ncn2C1OC(CO)=CC1O (centres undefined)	–	> 37.5	–	> 37.5	–	> 37.5	–	> 37.5	–	> 37.5	–	> 37.5	–	> 37.5	–	> 37.5	–	> 37.5
Cc1nc(NC(=O)CCCN2C(=O)c3cccc4cccc(c34)C2=O)sc1C(=O)Nc1cc(C(=O)NCCCN(C)C)n(C)c1	> 100	> 100	> 100	> 100	> 100	> 100	> 100	> 100	> 100	> 100	–	–	> 100	> 100	> 100	> 100	> 100	> 100
COc1ccc(-c2ccc(C3CC(c4ccc(Cl)cc4)=NN3)o2)c([N+](=O)[O-])c1 (centres undefined)	> 100	> 100	> 100	> 100	> 100	> 100	–	–	> 100	> 100	> 100	> 100	> 100	> 100	–	–	> 100	> 100
